Assay results published in patent US8772499B2, “TRPV3 modulators” (AbbVie Inc., priority 2011, dated 2014).
Where two headings read alike, the source gives them in different places.

Assays:
[1] = target: T1, human TRPV3 (Homo sapiens, UniProt Q8NET8); assay: In vitro antagonism of recombinant human TRPV3 activation (FLIPR Tetra calcium assay); type: cell-based; details: HEK293 cells stably expressing human TRPV3, agonist 2-APB at 80 μM
T1 construct: expressed in transfected cells
T1 sequence (Q8NET8 1-790): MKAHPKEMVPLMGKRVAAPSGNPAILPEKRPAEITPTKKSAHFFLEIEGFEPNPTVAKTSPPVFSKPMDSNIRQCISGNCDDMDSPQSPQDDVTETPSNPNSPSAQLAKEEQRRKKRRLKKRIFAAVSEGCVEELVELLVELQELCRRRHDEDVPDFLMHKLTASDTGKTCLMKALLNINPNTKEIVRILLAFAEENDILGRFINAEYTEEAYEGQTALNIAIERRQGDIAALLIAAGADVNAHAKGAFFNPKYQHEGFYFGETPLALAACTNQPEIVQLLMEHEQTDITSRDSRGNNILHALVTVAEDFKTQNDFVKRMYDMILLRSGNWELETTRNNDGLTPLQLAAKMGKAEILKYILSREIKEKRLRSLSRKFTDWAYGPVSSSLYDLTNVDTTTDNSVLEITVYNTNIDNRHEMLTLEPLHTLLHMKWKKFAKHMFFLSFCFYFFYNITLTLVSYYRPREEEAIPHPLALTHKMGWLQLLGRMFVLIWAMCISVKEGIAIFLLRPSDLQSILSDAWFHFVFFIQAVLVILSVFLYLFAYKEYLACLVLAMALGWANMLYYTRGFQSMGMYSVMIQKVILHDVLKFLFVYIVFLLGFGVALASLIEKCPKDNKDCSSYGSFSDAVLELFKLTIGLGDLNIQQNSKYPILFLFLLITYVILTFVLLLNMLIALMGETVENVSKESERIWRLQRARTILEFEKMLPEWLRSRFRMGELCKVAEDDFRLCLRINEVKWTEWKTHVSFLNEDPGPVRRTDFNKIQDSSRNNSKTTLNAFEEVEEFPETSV
How it was run: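 Calcium flux read over a 10 min run: compound added at 10 s to Calcium-4-loaded human TRPV3-HEK293 cells, agonist 2-APB (80 μM, its EC80) after 3 min. IC50 derived from peak-minus-baseline signal as percentage of uninhibited 2-APB response, typically averaged over at least two runs.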

[2] = In vitro human microsomal stability assay; type: in vitro ADME
How it was run: (§1)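 Metabolic stability was followed in NADPH-supplemented incubations at 37° C., using microsomes prepared from human liver or from Sprague-Dawley rat liver.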

[3] = In vitro rat microsomal stability assay; type: in vitro ADME, rat (Sprague-Dawley)
How it was run: as §1

[4] = actual measured value shown parenthetically, in most cases average of at least two runs, read-out: IC50
[5] = human, microsomes, 0.5 h, 0.5 μM, pH 7.4
[6] = Sprague-Dawley, rat, microsomes, 0.5 h, 0.5 μM, pH 7.4
[7] = reported range, read-out: IC50 (range class)
[8] = human liver microsomes, 0.5 μM substrate, 0.25 mg/mL microsomal protein, pH 7.4, 37° C., NADPH, 30 minutes
[9] = rat liver microsomes (Sprague-Dawley), 0.5 μM substrate, 0.25 mg/mL microsomal protein, pH 7.4, 37° C., NADPH, 30 minutes

Structure (SMILES) | IC50 [1, 4] | HUMAN MICROSOMAL STABILITY (% REMAINING AFTER 30 MINUTES) [2, 5] | RAT MICROSOMAL STABILITY (% REMAINING AFTER 30 MINUTES) [3, 6] | IC50 [1, 7] | HUMAN MICROSOMAL STABILITY (% REMAINING AFTER 30 MINUTES) [2, 8] | RAT MICROSOMAL STABILITY (% REMAINING AFTER 30 MINUTES) [3, 9]
OC(c1ccccn1)C1(c2ccc(C(F)(F)F)cc2)CC(F)(F)C1 (centres unmarked) [Example 133, {3,3-difluoro-1-[4-(trifluoromethyl)phenyl]cyclobutyl}(pyridin-2-yl)-methanol] | 0.12 µM | 73% | 61% |  |  | 
N[C@@H]1CCC[C@H]1[C@@H](O)C1(c2ccc(Cl)cc2)CCC1 [Example 224, (R)-[(1R,2R)-2-aminocyclopentyl][1-(4-chlorophenyl)cyclobutyl]methanol] | 4.84 µM | >85% | 70% |  |  | 
Cc1ccccc1C1(C(O)c2ccccn2)CCC1 (centres unmarked) [Example 7, [1-(2-methylphenyl)cyclobutyl](pyridin-2-yl)methanol] | 17.5 µM | 0.15% | 0.32% |  |  | 
OC(c1ccccn1)C1(c2cccnc2)CCC1 (centres unmarked) [Example 20, pyridin-2-yl(1-pyridin-3-ylcyclobutyl)methanol] | > 20 µM | 80% | 81% | > 20 µM |  | 
OC(C1CCc2cccnc21)C1(c2ccccc2C(F)(F)F)CCC1 (stereo not drawn) [Example 197, (anti)-6,7-dihydro-5H-cyclopenta[b]pyridin-7-yl{1-[2-(trifluoromethyl)-phenyl]cyclobutyl}methanol] | > 20 µM | 0.26% | <0.01% | > 20 µM |  | 
COc1ccnc(C(O)C2(c3ccc(Cl)c(Cl)c3)CCC2)c1 (centres unmarked) [Example 289, [1-(3,4-dichlorophenyl)cyclobutyl](4-methoxypyridin-2-yl)methanol] | > 20 µM | 4.2% | <0.01% | > 20 µM |  | 
CC(C)(C)OC(=O)N1CCC(c2cccc(OC(F)(F)F)c2)(C(O)c2ccccn2)CC1 (centres unmarked) [Example 158, tert-butyl 4-[hydroxy(pyridin-2-yl)methyl]-4-[3-(trifluoromethoxy)phenyl]-piperidine-1-carboxylate] | > 20 µM |  |  | > 20 µM | 3.7% | 0.04%
O=C1CC(c2ccc(C(F)(F)F)cc2)(C(O)c2ccccn2)C1 (centres unmarked) [Example 160, 3-[hydroxy(pyridin-2-yl)methyl]-3-[4-(trifluoromethyl)phenyl]-cyclobutanone] | 6.11 µM | >85% | 60% |  |  | 
OC(c1ccccn1)C1(c2ccccc2OC(F)(F)F)CCNCC1 (centres unmarked) [Example 142, pyridin-2-yl{4-[2-(trifluoromethoxy)phenyl]piperidin-4-yl}methanol] | > 20 µM | >85% | 37% | > 20 µM |  | 
CN1CCC(c2ccc(Cl)c(Cl)c2)(C(O)c2ccccn2)CC1 (centres unmarked) [Example 141, [4-(3,4-dichlorophenyl)-1-methylpiperidin-4-yl](pyridin-2-yl)methanol] | > 20 µM |  |  | > 20 µM | >85% | 59%
O[C@@H](c1ccccn1)C1(c2cc(C(F)(F)F)ccn2)CC(F)(F)C1 [Example 125, (R)-{3,3-difluoro-1-[4-(trifluoromethyl)pyridin-2-yl]cyclobutyl}(pyridin-2-yl)-methanol] | 18.6 µM | 53% | 8.8% |  |  | 
OC(c1ccccn1)C1(c2ccc(OC(F)(F)F)cc2)CCCO1 (single isomer, unassigned) [Example 95, (syn)-pyridin-2-yl{2-[4-(trifluoromethoxy)phenyl]tetrahydrofuran-2-yl}methanol] | 1.85 µM | 57% | 0.61% |  |  | 
CC1(O)CC(c2ccc(OC(F)(F)F)cc2)(C(O)c2ncccn2)C1 [Example 310, trans-3-((S)-hydroxy(pyrimidin-2-yl)methyl)-1-methyl-3-(4-(trifluoromethoxy)phenyl)cyclobutanol] | > 20 µM | >85% | >85% | > 20 µM |  | 
O=C1CC(c2cccc(C(F)(F)F)c2)([C@H](O)c2ccccn2)C1 (single isomer, unassigned) [Example 241] | 1.67 µM | 66% | 59% |  |  | 
Cc1ccccc1CC1(C(O)c2ccccn2)CCC1 (centres unmarked) [Example 253, [1-(2-methylbenzyl)cyclobutyl](pyridin-2-yl)methanol] | 3.4 µM | 0.21% | 0.017% |  |  | 
OC(c1ccccn1)C1(c2nc3ccccc3s2)CCC1 (centres unmarked) [Example 266, [1-(1,3-benzothiazol-2-yl)cyclobutyl](pyridin-2-yl)methanol] | 2.31 µM | 46% | 0.14% |  |  | 

The next lines start with results.

IC50 [1, 4] | HUMAN MICROSOMAL STABILITY (% REMAINING AFTER 30 MINUTES) [2, 5] | RAT MICROSOMAL STABILITY (% REMAINING AFTER 30 MINUTES) [3, 6] | IC50 [1, 7] | Structure (SMILES) | HUMAN MICROSOMAL STABILITY (% REMAINING AFTER 30 MINUTES) [2, 8] | RAT MICROSOMAL STABILITY (% REMAINING AFTER 30 MINUTES) [3, 9]
> 20 µM | 41% | 0.18% | > 20 µM | Nc1cccnc1C(O)C1(c2ccc(OC(F)(F)F)cc2)CCC1 (centres unmarked) [Example 121, (3-aminopyridin-2-yl) {1-[4-(trifluoromethoxy)phenyl]cyclobutyl}methanol] |  | 
0.47 µM | 76% | 73% |  | O[C@H](c1ccccn1)[C@]1(c2cccc(C(F)(F)F)c2)C[C@H](O)C1 [Example 259, cis-3-[(S)-hydroxy(pyridin-2-yl)methyl]-3-[3-(trifluoromethyl)phenyl]-cyclobutanol] |  | 
> 7.4 µM | <0.01% | <0.01% |  | OC(C1CCCc2cccnc21)C1(c2ccccc2OC(F)(F)F)CCC1 (stereo not drawn) [Example 191, (anti)-5,6,7,8-tetrahydroquinolin-8-yl{1-[2-(trifluoromethoxy)phenyl]-cyclobutyl}methanol] |  | 
9.14 µM | 5.6% | <0.01% |  | OC(C1CCc2cccnc21)C1(c2ccc(Cl)c(Cl)c2)CCC1 (stereo not drawn) [Example 168, (syn)-[1-(3,4-dichlorophenyl)cyclobutyl][6,7-dihydro-5H-cyclopenta[b]-pyridin-7-yl]methanol] |  | 
2.42 µM | 18% | 50% |  | O=C1CC(c2ccc(Cl)c(Cl)c2)([C@H](O)c2ccccn2)C1 [Example 117, 3-(3,4-dichlorophenyl)-3-[(S)-hydroxy(pyridin-2-yl)methyl]cyclobutanone] |  | 
3.91 µM | 7.1% | 21% |  | O[C@H](c1ccccn1)C1(c2cccc(C(F)(F)F)n2)CCC1 [Example 238, (S)-pyridin-2-yl{1-[6-(trifluoromethyl)pyridin-2-yl]cyclobutyl}methanol] |  | 
0.65 µM | 39% | 0.47% |  | OC(CC1(c2ccc(OC(F)(F)F)cc2)CCC1)c1ccccn1 (centres unmarked) [Example 76, 1-(pyridin-2-yl)-2-{1-[4-(trifluoromethoxy)phenyl]cyclobutyl}ethanol] |  | 
0.38 µM | 0.13% | 0.73% |  | Cc1cccc(C2(C(O)c3ccccn3)CCC2)c1 (centres unmarked) [Example 8, [1-(3-methylphenyl)cyclobutyl](pyridin-2-yl)methanol] |  | 
> 10 µM | 54% | 21% |  | O[C@H](c1ncccn1)C1(c2ccc(C(F)(F)F)cc2)CCC1 [Example 41, (S)-pyrimidin-2-yl{1-[4-(trifluoromethyl)phenyl]cyclobutyl}methanol] |  | 
